Source: ChEMBL document CHEMBL5143583, “Discovery of pyrroledione analogs as potent transient receptor potential canonical channel 5 inhibitors” (Bioorg Med Chem Lett, 2022)
Calls of active or inactive are those of the source. The rule behind the calls is not given here.

Assays:
[1] = target: T1, Short transient receptor potential channel 5 (Homo sapiens, UniProt Q9UL62); assay: Inhibition of TRPC5 channel (unknown origin) expressed in HEK293 cells assessed as inhibition of EA-evoked Ca2+ entry by measuring reduction in intracellular Ca2+ level by Fluo-4 dye based FLIPR assay; type: cell-based
T1 sequence (Q9UL62 whole entry): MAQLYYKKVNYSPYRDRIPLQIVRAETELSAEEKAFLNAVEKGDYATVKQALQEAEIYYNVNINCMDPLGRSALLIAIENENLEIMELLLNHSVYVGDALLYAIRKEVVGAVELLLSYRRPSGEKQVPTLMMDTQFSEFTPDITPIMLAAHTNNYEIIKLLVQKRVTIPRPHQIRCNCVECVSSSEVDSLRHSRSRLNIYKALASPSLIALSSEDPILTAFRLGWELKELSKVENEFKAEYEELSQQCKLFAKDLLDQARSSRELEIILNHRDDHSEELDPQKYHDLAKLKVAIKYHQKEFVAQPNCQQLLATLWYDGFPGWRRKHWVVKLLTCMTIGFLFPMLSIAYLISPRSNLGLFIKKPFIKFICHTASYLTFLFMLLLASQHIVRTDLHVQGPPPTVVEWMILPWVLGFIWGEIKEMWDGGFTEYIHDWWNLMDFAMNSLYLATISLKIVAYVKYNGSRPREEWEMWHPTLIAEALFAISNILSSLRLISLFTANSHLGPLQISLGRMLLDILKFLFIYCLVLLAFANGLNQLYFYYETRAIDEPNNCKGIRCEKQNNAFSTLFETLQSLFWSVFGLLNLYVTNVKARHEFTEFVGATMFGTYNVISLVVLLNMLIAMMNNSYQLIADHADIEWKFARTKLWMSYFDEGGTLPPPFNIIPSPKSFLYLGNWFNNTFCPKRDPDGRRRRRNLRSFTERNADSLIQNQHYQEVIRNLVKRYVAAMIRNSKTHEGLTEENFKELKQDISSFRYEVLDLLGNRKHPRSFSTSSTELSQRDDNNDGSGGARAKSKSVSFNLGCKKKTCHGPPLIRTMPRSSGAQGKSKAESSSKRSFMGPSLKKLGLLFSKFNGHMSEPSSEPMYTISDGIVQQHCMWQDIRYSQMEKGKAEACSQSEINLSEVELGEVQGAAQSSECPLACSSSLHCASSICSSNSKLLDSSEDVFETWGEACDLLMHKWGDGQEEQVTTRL

[2] = Cytotoxicity against mouse MPC5 cells assessed as reduction in cell viability at 1 to 10 uM by MTT assay; type: toxicity, cell-based; settings: mpc-5, 10 µM, dose 1-10 µM
Hepatocyte = assay: Cytotoxicity against primary mouse hepatocytes assessed as reduction in cell viability at 1 to 10 uM by MTT assay; type: toxicity, cell-based; settings: dose 1-10 µM
[3] = target: T2, Short transient receptor potential channel 3 (Homo sapiens) (UniProt Q13507); assay: Inhibition of human TRPC3 channel expressed in HEK293 cells assessed as inhibition of OAG-evoked Ca2+ entry by measuring reduction in intracellular Ca2+ level by Fluo-4 dye based FLIPR assay; type: cell-based
T2 sequence (whole entry): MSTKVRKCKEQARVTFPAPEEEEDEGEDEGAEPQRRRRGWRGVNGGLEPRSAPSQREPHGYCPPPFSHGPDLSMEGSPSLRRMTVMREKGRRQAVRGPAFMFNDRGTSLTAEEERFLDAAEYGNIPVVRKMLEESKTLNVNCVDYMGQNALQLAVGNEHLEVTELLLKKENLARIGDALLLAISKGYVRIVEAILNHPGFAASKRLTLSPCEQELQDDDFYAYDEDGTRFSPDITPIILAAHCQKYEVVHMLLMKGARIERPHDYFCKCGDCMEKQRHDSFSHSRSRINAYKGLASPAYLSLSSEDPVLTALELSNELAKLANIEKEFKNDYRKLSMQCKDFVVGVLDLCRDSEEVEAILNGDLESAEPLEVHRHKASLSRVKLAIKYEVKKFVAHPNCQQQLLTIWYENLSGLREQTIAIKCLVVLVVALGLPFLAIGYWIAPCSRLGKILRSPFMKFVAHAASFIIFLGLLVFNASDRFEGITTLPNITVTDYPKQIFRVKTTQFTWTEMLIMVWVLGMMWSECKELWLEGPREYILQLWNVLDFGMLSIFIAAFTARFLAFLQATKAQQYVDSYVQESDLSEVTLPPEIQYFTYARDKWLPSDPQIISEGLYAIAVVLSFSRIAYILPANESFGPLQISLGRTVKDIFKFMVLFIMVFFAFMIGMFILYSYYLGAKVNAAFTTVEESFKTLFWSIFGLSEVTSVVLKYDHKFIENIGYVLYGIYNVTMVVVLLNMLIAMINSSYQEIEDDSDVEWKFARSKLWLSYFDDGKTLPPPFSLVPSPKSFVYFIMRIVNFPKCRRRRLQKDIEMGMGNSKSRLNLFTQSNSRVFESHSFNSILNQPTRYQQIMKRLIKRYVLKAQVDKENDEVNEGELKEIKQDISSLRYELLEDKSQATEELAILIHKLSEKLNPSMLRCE

MPC-5 = assay: Reno-protectant activity against protamine sulfate-induced podocytes injury in mouse MPC5 cells assessed as reduction in PS-induced podocytes rearrangement and rupture of stress fibers at 0.1 to 3 uM pretreated for 30 mins followed by stimulation with PS for 100 mins; type: functional, cell-based; settings: dose 0.1-3 µM, time 130.0 min, DDE = dose-dependent effect
[4] = target: T3, Short transient receptor potential channel 4 (Homo sapiens) (UniProt Q9UBN4); assay: (§1) Inhibition of TRPC4 channel (unknown origin) expressed in HEK293 cells assessed as inhibition of EA-evoked Ca2+ entry by measuring reduction in intracellular Ca2+ level by Fluo-4 dye based FLIPR assay; type: cell-based; settings: DDE = dose-dependent effect
T3 sequence (whole entry): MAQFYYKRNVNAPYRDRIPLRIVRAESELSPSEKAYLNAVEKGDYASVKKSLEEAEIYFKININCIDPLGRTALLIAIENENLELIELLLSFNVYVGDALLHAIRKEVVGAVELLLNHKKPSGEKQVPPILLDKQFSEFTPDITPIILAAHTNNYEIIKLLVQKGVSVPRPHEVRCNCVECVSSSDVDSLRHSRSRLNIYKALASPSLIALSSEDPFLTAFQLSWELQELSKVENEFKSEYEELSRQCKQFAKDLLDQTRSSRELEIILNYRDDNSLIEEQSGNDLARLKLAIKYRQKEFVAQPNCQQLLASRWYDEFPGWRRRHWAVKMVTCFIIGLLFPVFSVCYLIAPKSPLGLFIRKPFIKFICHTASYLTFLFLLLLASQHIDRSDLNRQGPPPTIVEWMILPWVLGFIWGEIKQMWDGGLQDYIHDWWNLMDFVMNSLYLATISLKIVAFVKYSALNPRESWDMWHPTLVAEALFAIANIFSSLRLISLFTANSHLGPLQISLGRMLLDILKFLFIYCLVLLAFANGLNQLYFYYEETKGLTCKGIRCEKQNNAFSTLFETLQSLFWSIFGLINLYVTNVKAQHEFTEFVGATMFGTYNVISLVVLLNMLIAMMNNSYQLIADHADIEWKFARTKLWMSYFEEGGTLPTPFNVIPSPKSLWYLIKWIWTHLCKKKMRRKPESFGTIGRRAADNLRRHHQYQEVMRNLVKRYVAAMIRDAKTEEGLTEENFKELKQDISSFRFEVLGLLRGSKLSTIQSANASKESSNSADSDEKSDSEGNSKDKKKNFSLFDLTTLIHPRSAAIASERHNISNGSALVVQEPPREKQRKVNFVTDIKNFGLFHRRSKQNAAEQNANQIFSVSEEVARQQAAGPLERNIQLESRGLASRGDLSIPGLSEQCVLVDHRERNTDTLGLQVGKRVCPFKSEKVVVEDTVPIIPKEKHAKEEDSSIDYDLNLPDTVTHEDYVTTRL

[5] = target: T4, Short transient receptor potential channel 4 (Homo sapiens, UniProt Q9UBN4); assay: as §1; type: cell-based
T4 sequence (Q9UBN4 whole entry): T3 sequence (whole entry)

[6] = target: T1, Short transient receptor potential channel 5; assay: Inhibition of human TRPC5 channel expressed in HEK293 cells assessed as inhibition of EA-evoked channel current measured at +80 mV by whole-cell voltage clamp assay; type: cell-based

| Structure (SMILES) | IC50 [1] [nM] | also measured |
| --- | --- | --- |
| O=C1NC(=O)C(N2CCc3c(ncnc3Oc3ccc(F)cc3C3CC3)C2)=C1Cl | 111 |  |
| O=C1NC(=O)C(N2CCc3c(ncnc3Oc3ccc(F)cc3C(F)(F)F)C2)=C1Cl | 60 | Activity [2]: Non-Toxic; Activity (Hepatocyte): Non-Toxic; inhibition [3]: Active; Activity (MPC-5): Dde; inhibition [4]: Dde; IC50 [5]: 65 nM; IC50 [6]: 14.1 nM |
| O=C1NC(=O)C(N2CCc3c(ncnc3Oc3ccc(F)cc3CC(F)(F)F)C2)=C1Cl | 2540 |  |
| O=C1NC(=O)C(N2CCc3c(ncnc3Oc3ccc(F)cc3C3CCC3)C2)=C1Cl | > 10000 |  |
| O=C1NC(=O)C(N2CCc3c(nc(C4CC4)nc3Oc3ccc(F)cc3C(F)(F)F)C2)=C1Cl | 2080 |  |
| CCc1ccccc1Oc1ncnc2c1CCN(C1=C(Cl)C(=O)NC1=O)C2 | 1070 |  |
| Cc1cc(F)ccc1Oc1ncnc2c1CCN(C1=C(Cl)C(=O)NC1=O)C2 | > 10000 |  |
| CCc1nc2c(c(Oc3ccc(F)cc3C(F)(F)F)n1)CCN(C1=C(Cl)C(=O)NC1=O)C2 | 798 |  |
| O=C1NC(=O)C(N2CCc3c(ncnc3Oc3ccc(F)cc3C3CCCC3)C2)=C1Cl | > 10000 |  |
| N#Cc1cc(F)ccc1Oc1ncnc2c1CCN(C1=C(Cl)C(=O)NC1=O)C2 | 664 |  |
| O=C1NC(=O)C(N2CCc3c(ncnc3Oc3ccccc3Cl)C2)=C1Cl | 654 |  |
| O=C1NC(=O)C(N2CCc3c(ncnc3Oc3ccc(F)cc3Cl)C2)=C1Cl | 280 |  |
| C#Cc1cc(F)ccc1Oc1ncnc2c1CCN(C1=C(Cl)C(=O)NC1=O)C2 | 629 |  |
| Cc1nc2c(c(Oc3ccc(F)cc3C(F)(F)F)n1)CCN(C1=C(Cl)C(=O)NC1=O)C2 | 125 |  |
| O=C1NC(=O)C(N2CCc3c(ncnc3Oc3ccc(Cl)cc3C(F)(F)F)C2)=C1Cl | 314 |  |

The next lines start with results.

| IC50 [1] [nM] | Structure (SMILES) | also measured |
| --- | --- | --- |
| 452 | O=C1NC(=O)C(N2CCc3c(ncnc3Oc3ccccc3C(F)(F)F)C2)=C1Cl |  |
| > 10000 | O=C1CN(c2cn[nH]c(=O)c2)CCN1Cc1ccccc1C(F)(F)F |  |
| > 10000 | O=C1CN(c2cc(=O)[nH]c(=O)[nH]2)CCN1Cc1ccccc1C(F)(F)F |  |
| > 10000 | Cn1c(N2CCN(Cc3ccccc3C(F)(F)F)C(=O)C2)cc(=O)n(C)c1=O |  |
| > 10000 | CN(CC(=O)NCc1ccccc1C(F)(F)F)c1cn[nH]c(=O)c1Cl |  |
| > 10000 | O=C1NC(=O)C(N2CCc3c(ncnc3Oc3cccc(C(F)(F)F)c3)C2)=C1Cl |  |
| > 10000 | Cn1ncc(N2CCN(Cc3ccccc3C(F)(F)F)C(=O)C2)c(Cl)c1=O |  |
| 776 | O=C1NC(=O)C(N2CCc3c(ncnc3Oc3c(F)cccc3C(F)(F)F)C2)=C1Cl |  |
| 955 | O=C1NC(=O)C(N2CCc3c(cnn3Cc3ccccc3C(F)(F)F)C2)=C1Cl |  |
| 10400 | O=C1NC(=O)C(N2CCN(Cc3ccccc3C(F)(F)F)C(=O)C2)=C1Cl |  |
| > 10000 | Cn1c(N2CCN(Cc3ccccc3C(F)(F)F)C(=O)C2)cc(=O)[nH]c1=O |  |
| 211 | O=C1CN(c2cn[nH]c(=O)c2Cl)CCN1Cc1ccccc1C(F)(F)F | Activity [2]: Non-Toxic; Activity (Hepatocyte): Non-Toxic; Activity (MPC-5): Dde; IC50 [6]: 50.1 nM |
| > 10000 | O=C(NCc1ccccc1C(F)(F)F)C1CN(c2cn[nH]c(=O)c2Cl)C1 |  |
| 860 | O=C1NC(=O)C(N2CCc3ncn(Cc4ccccc4C(F)(F)F)c3C2)=C1Cl |  |
| > 10000 | O=C1CN(c2cn[nH]c(=O)c2Cl)CN1Cc1ccccc1C(F)(F)F |  |
| > 10000 | O=C(CC1CN(c2cn[nH]c(=O)c2Cl)C1)NCc1ccccc1C(F)(F)F |  |
| > 10000 | CN(Cc1ccccc1C(F)(F)F)C(=O)C1CN(c2cn[nH]c(=O)c2Cl)C1 |  |
| > 10000 | O=C1NC(=O)C(N2CCc3c(ncnc3Oc3ccc(C(F)(F)F)cc3)C2)=C1Cl |  |
| > 10000 | O=C1CN(c2cc(=O)[nH]cn2)CCN1Cc1ccccc1C(F)(F)F |  |
